Where two headings read alike, the source gives them in different places. Each block holds one compound with its values, some of them ahead of it.
Tests used:
recombinant Top1 = molecular target: T1, recombinant Top1 (Homo sapiens, UniProt P11387); experiment: Top1-mediated DNA cleavage assay; format: biochemical; settings: semiquantitative scale relative to 1 μM MJ-III-65 (6) and 1 μM camptothecin (1)
T1 sequence (P11387 1-765): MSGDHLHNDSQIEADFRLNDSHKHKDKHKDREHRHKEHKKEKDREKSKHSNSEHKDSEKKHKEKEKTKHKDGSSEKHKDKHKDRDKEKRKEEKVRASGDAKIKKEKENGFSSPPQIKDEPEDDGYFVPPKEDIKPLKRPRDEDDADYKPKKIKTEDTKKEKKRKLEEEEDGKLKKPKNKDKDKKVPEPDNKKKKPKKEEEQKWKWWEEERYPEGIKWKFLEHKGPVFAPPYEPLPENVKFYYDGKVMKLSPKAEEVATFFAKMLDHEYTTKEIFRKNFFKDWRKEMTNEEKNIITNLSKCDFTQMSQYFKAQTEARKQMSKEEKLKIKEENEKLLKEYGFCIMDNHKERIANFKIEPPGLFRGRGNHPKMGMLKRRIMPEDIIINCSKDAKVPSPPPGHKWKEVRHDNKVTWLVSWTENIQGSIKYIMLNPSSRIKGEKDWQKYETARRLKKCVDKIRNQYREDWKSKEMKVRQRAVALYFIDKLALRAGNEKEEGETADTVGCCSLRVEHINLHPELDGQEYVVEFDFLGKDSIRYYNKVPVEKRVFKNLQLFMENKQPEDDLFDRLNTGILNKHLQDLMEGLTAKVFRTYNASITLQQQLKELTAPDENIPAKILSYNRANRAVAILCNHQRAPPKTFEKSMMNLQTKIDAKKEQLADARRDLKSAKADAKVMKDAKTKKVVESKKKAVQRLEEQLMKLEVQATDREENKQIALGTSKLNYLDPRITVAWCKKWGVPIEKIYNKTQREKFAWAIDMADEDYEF

HOP-62 [1] = settings: human, HOP-62 lung tumor cells
HCT-116 [2] = settings: human, HCT-116 colon tumor cells
OVCAR-3 [3] = settings: human, OVCAR-3 ovarian tumor cells
DU-145 [4] = settings: human, DU-145 prostate tumor cells
[5] = system: NCI-60 human tumor cell lines; settings: NCI-60 human tumor cell lines (all cell lines tested)
SF-539 = experiment: NCI-60 human tumor cell line screen, CNS SF-539; settings: read-out: cytotoxicity (GI50) CNS SF-539; 50% growth inhibition
HOP-62 [6] = experiment: NCI-60 human tumor cell line screen, lung HOP-62; settings: read-out: cytotoxicity (GI50) lung HOP-62; 50% growth inhibition
SN12C = experiment: NCI-60 human tumor cell line screen, renal SN12C; settings: read-out: cytotoxicity (GI50) renal SN12C; 50% growth inhibition
MCF-7 = experiment: NCI-60 human tumor cell line screen, breast MCF-7; settings: read-out: cytotoxicity (GI50) breast MCF-7; 50% growth inhibition
HCT-116 [7] = experiment: NCI-60 human tumor cell line screen, colon HCT-116; settings: read-out: cytotoxicity (GI50) colon HCT-116; 50% growth inhibition
OVCAR-3 [8] = experiment: NCI-60 human tumor cell line screen, ovarian OVCAR-3; settings: read-out: cytotoxicity (GI50) ovarian OVCAR-3; 50% growth inhibition
DU-145 [9] = experiment: NCI-60 human tumor cell line screen, prostate DU-145; settings: read-out: cytotoxicity (GI50) prostate DU-145; 50% growth inhibition
UACC-62 = experiment: NCI-60 human tumor cell line screen, melanoma UACC-62; settings: read-out: cytotoxicity (GI50) melanoma UACC-62; 50% growth inhibition
[10] = system: NCI-60 human tumor cell lines; experiment: NCI-60 mean graph midpoint; settings: read-out: MGM GI50

enzyme inhibitory activity Top1 (compound-induced DNA cleavage score) (recombinant Top1): +++ | GI50 (HOP-62 [1]): 186 nM | GI50 (HCT-116 [2]): 107 nM | GI50 (OVCAR-3 [3]): 407 nM | GI50 (DU-145 [4]): 309 nM | GI50 [5]: 229 nM
SMILES: O=C1c2ccccc2-c2c1c1ccc(Cl)cc1c(=O)n2CCCn1ccnc1 [compound 8]

SMILES: COc1cnc2c(c1)C(=O)c1c-2n(CCCn2ccnc2)c(=O)c2cc([N+](=O)[O-])ccc12 [compound 9]
zebrafish survival percentage (zebrafish embryos; 0.1 μM in medium, 48 h after fertilization): 0 ± 0 % | zebrafish survival percentage (zebrafish embryos; 0.1 μM in medium, 72 h after fertilization): 0 ± 0 % | zebrafish survival percentage (zebrafish embryos; 0.1 μM in medium, 96 h after fertilization): 0 ± 0 % | zebrafish survival percentage (zebrafish embryos; 0.1 μM in medium, 120 h after fertilization): 0 ± 0 % | zebrafish survival percentage (zebrafish embryos; 1 μM in medium, 24 h after fertilization): 0 ± 0 % | zebrafish survival percentage (zebrafish embryos; 1 μM in medium, 48 h after fertilization): 0 ± 0 % | zebrafish survival percentage (zebrafish embryos; 1 μM in medium, 72 h after fertilization): 0 ± 0 % | zebrafish survival percentage (zebrafish embryos; 1 μM in medium, 96 h after fertilization): 0 ± 0 % | zebrafish survival percentage (zebrafish embryos; 1 μM in medium, 120 h after fertilization): 0 ± 0 % | zebrafish survival percentage (zebrafish embryos; 10 μM in medium, 24 h after fertilization): 0 ± 0 % | zebrafish survival percentage (zebrafish embryos; 10 μM in medium, 48 h after fertilization): 0 ± 0 % | zebrafish survival percentage (zebrafish embryos; 10 μM in medium, 72 h after fertilization): 0 ± 0 % | zebrafish survival percentage (zebrafish embryos; 10 μM in medium, 96 h after fertilization): 0 ± 0 % | zebrafish survival percentage (zebrafish embryos; 10 μM in medium, 120 h after fertilization): 0 ± 0 % | lethality in zebrafish (comparison between compounds) (zebrafish embryos; statistical comparison of 9, 16b and 17b): significantly more lethal | GI50 (SF-539): < 10 nM | GI50 (HOP-62 [6]): < 10 nM | GI50 (SN12C): < 10 nM | GI50 (MCF-7): < 10 nM | GI50 (HCT-116 [7]): < 10 nM | GI50 (OVCAR-3 [8]): 25 nM | GI50 (DU-145 [9]): < 10 nM | GI50 (UACC-62): < 10 nM | GI50 [10]: 21 nM

Source: paper PMC8025945 (Journal of medicinal chemistry, 2017)
